Assay: gradient 5% acetonitrile 3 min, to 50% in 2 min, to 85% in 15 min, held 3 min, 100 µL/min
Conditions: column: Zorbax Extend-C18 2.1 x 50 mm; eluents: water / acetonitrile, 0.1% formic acid
Outline: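 Retention time was recorded from adduct peaks, which were picked computationally and each inspected manually. Pure standards ran in mixtures of ~100 molecules on HPLC coupled to a quadrupole time-of-flight mass spectrometer, in positive and negative ionization mode, through a Zorbax Extend-C18 column (2.1 × 50 mm, 1.8 μm) at 100 μL/min. Eluents were water and acetonitrile, each with 0.1% formic acid.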

Going from `CN1CCN(c2ccc(Nc3cc(-c4cccc(-n5ccc6cc(C7CC7)cc(F)c6c5=O)c4CO)cn(C)c3=O)nc2)CC1` to `COC(=O)c1cccc(NC(=O)CSc2nccc(N3CCN(c4cccc(OC)c4)CC3)n2)c1`, the RP-LC retention time rises from 702 s to 743 s.

First: CC(C)NC(=O)c1c2c(cn(-c3ccc(F)cc3)c1=O)C(=O)CC(C)(C)C2
Second: COc1ccc(Cl)cc1NC(=O)NC1CCN(c2ccc(F)cc2)C1=O (centres undefined)
The RP-LC retention time of the first is lower: 869 s for the first, 899 s for the second.

First: Cn1cc(CCNC(=O)Cc2ccc(Cl)cc2)c2cccnc21
Second: O=C(CN1C(=O)CCSc2ccccc21)NCc1ccc(F)cc1
The RP-LC retention time of the first is lower: 696 s for the first, 794 s for the second.

Going from `O=C(c1ccco1)N1CCC(n2c(-c3ccoc3)nc3cccnc32)C1` (centres undefined) to `Cc1ccc(C(=O)N2CCCC(c3nnc(-c4ccccc4)o3)C2)s1` (centres undefined), the RP-LC retention time rises from 650 s to 861 s.

First: CC1CCc2[nH]nc(C(=O)NC3CCCC3)c2C1 (centres undefined)
Second: O=C(NCCC1CCN(S(=O)(=O)c2ccccc2)CC1)NC1CCCCC1
The RP-LC retention time of the first is lower: 806 s for the first, 865 s for the second.

Going from `CCc1ccc(CNC(=O)C2(c3ccc(NC(C)=O)cc3)CCC2)cc1` to `CS(=O)(=O)Nc1ccc(C2(C(=O)NCc3ccc4c(c3)OCO4)CCCCC2)cc1`, the RP-LC retention time rises from 827 s to 857 s.

First: Cn1cc(-c2cc3n(n2)CCCN3C(=O)CCC(=O)NCc2ccccc2)c2ccccc21
Second: CN(C)C(CNC(=O)Cn1c(=O)oc2ccccc21)c1cn(C)c2ccccc12 (centres undefined)
The RP-LC retention time of the first is higher: 804 s for the first, 575 s for the second.

Going from `COc1ccc(Cl)cc1NC(=O)C1c2cc(OC)c(OC)cc2C(=O)N(C)C1c1cccnc1` (centres undefined) to `COc1ccccc1NC(=O)Cn1nc2cc(C)nc(-c3ccc(F)cc3)n2c1=O`, the RP-LC retention time rises from 703 s to 851 s.

Going from `CC(NS(=O)(=O)c1cccc(Cl)c1)C(=O)Nc1ccc(Br)cc1F` (centres undefined) to `Cc1ccc(-c2ocnc2C(=O)Nc2ccc(Br)cc2F)o1`, the RP-LC retention time rises from 912 s to 1290 s.

Compared with `Cc1ccccc1-c1nnc(CSc2nnc(NC(=O)CCc3ccccc3)s2)o1`, `Cc1nnsc1C(=O)Nc1nnc(SCC(=O)NCc2ccco2)s1` is lower in RP-LC retention time: 977 s for the first, 692 s for the second.

Going from `CCCN(CC1CCOC1)C(=O)Nc1cc(C)ccc1C` (centres undefined) to `CCC(=O)NCc1nc2c(n1CC)CN(S(=O)(=O)c1cc(C)ccc1C)CC2`, the RP-LC retention time falls from 796 s to 590 s.

Compared with `Cc1ccc(CNC(=O)NCC2Cn3cccc3C(=O)N2C)cc1` (centres undefined), `CCn1ccc2c(cc(C(=O)Nc3ccc(C)cc3)n2C)c1=O` is higher in RP-LC retention time: 680 s for the first, 769 s for the second.

Compared with `CCCN(c1ccc(F)cc1)c1nc(C(=O)OCC)nc2ccccc12`, `Cc1nc(-c2ccccc2)cc2nn(CC(=O)NCc3ccc(F)cc3)c(=O)n12` is lower in RP-LC retention time: 1080 s for the first, 559 s for the second.

Going from `CC(C(=O)OC1CC2CCC(C1)N2C)c1ccc(Br)cc1` (centres undefined) to `O=C(COc1ccc(-c2nnc3n2CCCC3)cc1)Nc1cccc(Br)c1`, the RP-LC retention time falls from 785 s to 642 s.

Compared with `CCCn1ccc2sc(C)c(C(=O)NCc3cccc(Br)c3)c2c1=O`, `CC(C)Cn1ccc2c(cc(C(=O)NCc3cc(F)cc(F)c3)n2C)c1=O` is lower in RP-LC retention time: 998 s for the first, 850 s for the second.

Compared with `Cc1ccc2c(c1)NC(=O)c1cc(NC(=O)Cc3ccc(F)cc3)ccc1O2`, `Cc1cc(NC(=O)C2CCCN(c3nc4ccsc4c(=O)n3Cc3ccc(F)cc3)C2)ccc1F` (centres undefined) is higher in RP-LC retention time: 842 s for the first, 1050 s for the second.

Going from `CCOc1ccc(S(=O)(=O)Nc2ccc(-c3cn4ccccc4n3)cc2)cc1` to `Cc1ccc(Nc2c(-c3ccccc3O)nc3ccc(Cl)cn23)cc1`, the RP-LC retention time rises from 661 s to 1080 s.

Compared with `CCn1cnnc1C1CCCCN1C(=O)Cc1c[nH]c2ccccc12` (centres undefined), `COCCn1c(=O)c2cc(C(=O)N3CCCC3)nn2c2ccccc21` is higher in RP-LC retention time: 649 s for the first, 760 s for the second.

Going from `CCCNC(=O)N1CC(Oc2cccc(-c3nc(-c4ccccc4)no3)c2)C1` to `O=C(Cc1csc(-n2cccc2)n1)NCc1nc(-c2ccccc2)no1`, the RP-LC retention time falls from 1040 s to 821 s.

Compared with `CCOC(=O)c1ccc(NC(=O)c2cc(C(C)C)n3nccc3n2)cc1`, `CCOc1ccc2c(n1)CCN(C(=O)Nc1cc(C)cc(C)c1)C2` is lower in RP-LC retention time: 1170 s for the first, 912 s for the second.

Going from `O=C(NCc1ccccc1)NCC1CCOCC1` to `O=C(Nc1ccc2c(c1)OCCO2)NC1CCN(c2ccccc2)C1=O` (centres undefined), the RP-LC retention time rises from 651 s to 720 s.

Going from `O=c1n(CCOc2ccccc2)nc2c(S(=O)(=O)N3CCc4ccccc4C3)cccn12` to `O=C(Cn1nc(Cc2cccnc2)c2ccccc2c1=O)N1CC=C(c2ccccc2)CC1`, the RP-LC retention time falls from 820 s to 680 s.

First: Cc1nnc(NC(=O)c2ccc(N3CCCC3)nn2)s1
Second: Cc1nnc(NC(=O)CSCc2ccco2)s1
The RP-LC retention time of the first is lower: 594 s for the first, 632 s for the second.

First: CCN(Cc1ccc(OC)cc1)Cc1cc(=O)n2cc(C)ccc2n1
Second: CCOc1ccc(N2C(=O)C3N=NN(Cc4nc(-c5ccc(C)cc5)no4)C3C2=O)cc1 (centres undefined)
The RP-LC retention time of the first is lower: 572 s for the first, 1040 s for the second.

First: Cc1cc(C)nc(SCC(=O)Nc2nc(-c3ccccc3)cs2)n1
Second: CC1Oc2ccc(-c3csc(NC(=O)c4cccs4)n3)cc2N(C)C1=O (centres undefined)
The RP-LC retention time of the first is higher: 1020 s for the first, 949 s for the second.

Compared with `CCSc1nc2ccc(NS(=O)(=O)Cc3cc(F)cc(F)c3)cc2s1`, `Cc1csc(-c2cc(S(=O)(=O)Nc3cccc(C)c3C)c(C)s2)n1` is higher in RP-LC retention time: 1020 s for the first, 1090 s for the second.

Going from `Cc1[nH]c(C(=O)N2CCC(CC(=O)NCCC(C)C)CC2)c(C)c1C` to `Cc1ccc(C)c(CN2CCC(CNC(=O)C3CCN(c4cc(=O)n(C)c(=O)n4C)CC3)CC2)c1`, the RP-LC retention time falls from 813 s to 618 s.

Going from `CNC(=O)C1CCCN(C(=O)Nc2ccc(NC(=O)Nc3ccc(C)c(C)c3)cc2)C1` (centres undefined) to `Cc1nn(-c2ccc(F)cc2)c2nc(N3CCCC(C(=O)NCc4cccc(Cl)c4)C3)sc12` (centres undefined), the RP-LC retention time rises from 722 s to 1200 s.

Going from `Cc1ccc(-c2noc(-c3nn(-c4ccc(C)cc4)ccc3=O)n2)cc1` to `Fc1ccc(-c2nc(-c3ccc4nncn4c3)no2)cc1`, the RP-LC retention time falls from 1010 s to 810 s.

Compared with `O=C(NCCc1csc(-c2ccccc2)n1)C1CCN(S(=O)(=O)c2cccc(Cl)c2)CC1`, `Cc1cc(S(=O)(=O)[C@H]2CS(=O)(=O)C[C@@H]2N2CCN(Cc3ccccc3)CC2)ccc1F` is lower in RP-LC retention time: 982 s for the first, 678 s for the second.

Compared with `Cn1nc(C(=O)NCc2ccc3c(c2)OCO3)c2c1CCN(C(=O)C1CC1)C2`, `Cc1ccc(N2CC(c3nc(-c4ccc5c(c4)ncn5CCC(=O)N4CCCC4)no3)CC2=O)cc1C` (centres undefined) is higher in RP-LC retention time: 716 s for the first, 738 s for the second.

Going from `Cc1nnc2cc(N3CCN(S(=O)(=O)c4ccc(F)cc4)CC3)cnn12` to `O=C1NCCCn2cc(S(=O)(=O)N3CCN(c4ccccc4F)CC3)cc21`, the RP-LC retention time rises from 670 s to 742 s.

Going from `CC(C)S(=O)(=O)c1cc2c(cc1NC(=O)c1ccc(C(F)(F)F)cc1)n(C)c(=O)n2C` to `CC(C)(C)C(O)CCNC(=O)c1ccc(C(F)(F)F)cc1` (centres undefined), the RP-LC retention time falls from 896 s to 813 s.

First: CCOc1ccccc1NC(=O)C(CC)n1cnc2nc3c(cc2c1=O)CCCC3 (centres undefined)
Second: CCC(C(=O)Nc1cc(-c2nc3ccccc3[nH]2)ccc1C)c1ccccc1 (centres undefined)
The RP-LC retention time of the first is higher: 919 s for the first, 755 s for the second.

First: CC(=O)N1CCc2sc(C(=O)N3CCN(c4ccccn4)CC3)cc2C1
Second: Cc1nnc(-c2ccc3ccn(CC(=O)N4CCN(c5cccc(C)c5C)CC4)c3c2)o1
The RP-LC retention time of the first is lower: 575 s for the first, 997 s for the second.

Compared with `O=C(NCc1cccs1)c1ccc(N2CCCCS2(=O)=O)cc1`, `O=C(NCc1cccs1)c1cccc2c1CCN2C(=O)c1ccc(F)cc1` is higher in RP-LC retention time: 696 s for the first, 858 s for the second.

Going from `CCCCn1c(=O)c2ccccc2n(Cc2nc(-c3ccc(F)c(Br)c3)no2)c1=O` to `CCC1Oc2ccc(Cl)cc2N(CC(=O)N2CCN(Cc3noc4ccccc34)CC2)C1=O` (centres undefined), the RP-LC retention time falls from 1320 s to 865 s.

Compared with `CCN1c2ccc(F)cc2C(=O)NC12CCN(C(=O)c1cccc(OC)c1)CC2`, `Cc1ccc2c(c1)C(=O)NC1(CCN(C(=O)c3cccc(F)c3)CC1)N2C` is lower in RP-LC retention time: 786 s for the first, 756 s for the second.

Compared with `O=C(Cc1cccs1)N1CCCn2cc(-c3ccccc3F)nc21`, `Cc1cc(N2CCC(NS(=O)(=O)c3ccccc3F)C2=O)ccc1F` (centres undefined) is higher in RP-LC retention time: 848 s for the first, 900 s for the second.

Going from `O=C([C@@H]1C[C@H](F)CN1C(=O)Nc1ccc(F)cc1)N1CCOCC1` to `COc1ccc(NC(=O)CN2C(=O)NC3(CCCCC3)C2=O)cc1`, the RP-LC retention time rises from 608 s to 723 s.

Going from `O=C(Nc1ccccc1-c1nc2ccccc2[nH]1)c1ccccc1Cl` to `O=C(CN1C(=O)CSc2cccn2-c2ccccc21)NCc1ccc(F)cc1`, the RP-LC retention time falls from 871 s to 866 s.

Going from `CCOC(=O)c1cc2c([nH]c1=O)CC(c1cccc(Cl)c1)CC2=O` (centres undefined) to `Cc1cc(Cl)ccc1OCC(=O)N(Cc1ccc(N(C)C)cc1)C1CCS(=O)(=O)C1` (centres undefined), the RP-LC retention time rises from 770 s to 849 s.

First: COc1ccccc1-c1nnc2sc(-c3cc(C)on3)nn12
Second: NC(=O)c1c(N)c(C(=O)c2cccc([N+](=O)[O-])c2)n2ccccc12
The RP-LC retention time of the first is higher: 823 s for the first, 649 s for the second.

Going from `CN(CCc1ccc(Cl)c(Cl)c1)[C@@H]1CCCC[C@@H]1N1CCCC1` to `CCOCCCNC(=O)C1CCN(c2nc3cccnc3s2)CC1`, the RP-LC retention time falls from 956 s to 654 s.

For `[N-]=[N+]=Nc1ccc2c(c1)Sc1ccccc1N2CCCCN1CCN(Cc2ccc(C(=O)c3ccccc3)cc2)CC1`, the RP-LC retention time was 1040 s.

Reference: the METLIN SMRT retention time set (Domingo-Almenara et al. 2019)
